From article PMC5218480 (PLoS ONE, 2017) come the findings set out here.

The structures appear in SMILES notation.

This assay relates to MV-4-11 cells. Put plainly: Gene expression microarray analysis (Affymetrix PrimeView) and GSEA. The class given is cell-based, human. Also noted: RFU PODN (11730768_x_at) / Fold change /veh PODN (11730768_x_at) / RFU LINC00158 (11744669_a_at) / Fold change /veh LINC00158 (11744669_a_at) / RFU DUSP10 (11751237_a_at) / Fold change /veh DUSP10 (11751237_a_at) / RFU ID3 (11757404_x_at) / Fold change /veh ID3 (11757404_x_at) / RFU PLEKHG5 (11737974_s_at) / Fold change /veh PLEKHG5 (11737974_s_at) / RFU LRRC4B (11730491_at) / Fold change /veh LRRC4B (11730491_at) / RFU GIMAP4 (11747438_a_at) / Fold change /veh GIMAP4 (11747438_a_at) / RFU KRT8 (11758183_x_at) / Fold change /veh KRT8 (11758183_x_at) / RFU CNN1 (11734310_a_at) / Fold change /veh CNN1 (11734310_a_at) / RFU VPS37D (11726825_at) / Fold change /veh VPS37D (11726825_at) / RFU C10orf10 (11716522_x_at) / Fold change /veh C10orf10 (11716522_x_at) / RFU KIR2DL2 /// KIR2DL4 /// KIR2DL5A /// KIR2DL5B /// KIR2DS1 /// KIR2DS2 /// KIR2DS3 /// KIR2DS4 /// KIR3DL3 /// KIR3DL3 /// KIR3DS1 (11738374_at) / Fold change /veh KIR2DL2 /// KIR2DL4 /// KIR2DL5A /// KIR2DL5B /// KIR2DS1 /// KIR2DS2 /// KIR2DS3 /// KIR2DS4 /// KIR3DL3 /// KIR3DL3 /// KIR3DS1 (11738374_at) / RFU C1QL1 (11718748_at) / Fold change /veh C1QL1 (11718748_at) / RFU TMPRSS4 (11747572_a_at) / Fold change /veh TMPRSS4 (11747572_a_at) / RFU HAMP (11756126_x_at) / Fold change /veh HAMP (11756126_x_at) / RFU RNFT2 (11725882_a_at) / Fold change /veh RNFT2 (11725882_a_at) / RFU NR4A2 (11747474_a_at) / Fold change /veh NR4A2 (11747474_a_at) / RFU ABCC12 (11746883_a_at) / Fold change /veh ABCC12 (11746883_a_at) / RFU TMEM136 (11760407_x_at) / Fold change /veh TMEM136 (11760407_x_at) / RFU CLDN22 /// WWC2 (11732394_at) / Fold change /veh CLDN22 /// WWC2 (11732394_at) / RFU HLA-DPB1 (11760878_x_at) / Fold change /veh HLA-DPB1 (11760878_x_at) / RFU SPINT1 (11716480_a_at) / Fold change /veh SPINT1 (11716480_a_at) / RFU GAP43 (11754022_s_at) / Fold change /veh GAP43 (11754022_s_at) / RFU A4GNT (11735810_at) / Fold change /veh A4GNT (11735810_at) / RFU PRB3 (11715151_x_at) / Fold change /veh PRB3 (11715151_x_at) / RFU TUBB4B (11761932_at) / Fold change /veh TUBB4B (11761932_at) / RFU CAPN14 (11732068_a_at) / Fold change /veh CAPN14 (11732068_a_at) / RFU TMCC2 (11721928_a_at) / Fold change /veh TMCC2 (11721928_a_at) / RFU IRGQ (11745062_a_at) / Fold change /veh IRGQ (11745062_a_at) / RFU FAM174B (11720279_a_at) / Fold change /veh FAM174B (11720279_a_at) / RFU TMPRSS4 (11748680_a_at) / Fold change /veh TMPRSS4 (11748680_a_at) / RFU FAM212B (11763350_a_at) / Fold change /veh FAM212B (11763350_a_at) / RFU PLEKHG5 (11743358_a_at) / Fold change /veh PLEKHG5 (11743358_a_at) / RFU ZSCAN30 (11745921_a_at) / Fold change /veh ZSCAN30 (11745921_a_at) / RFU CMKLR1 (11741424_a_at) / Fold change /veh CMKLR1 (11741424_a_at) / RFU LOC101060620 /// MAPK8IP1 (11723275_at) / Fold change /veh LOC101060620 /// MAPK8IP1 (11723275_at) / RFU SPTSSB (11747773_x_at) / Fold change /veh SPTSSB (11747773_x_at) / RFU PRSS12 (11739890_at) / Fold change /veh PRSS12 (11739890_at) / RFU BIN1 (11741810_x_at) / Fold change /veh BIN1 (11741810_x_at) / RFU WNT11 (11732464_a_at) / Fold change /veh WNT11 (11732464_a_at) / RFU C10orf10 (11716521_a_at) / Fold change /veh C10orf10 (11716521_a_at) / RFU C5orf56 (11738089_at) / Fold change /veh C5orf56 (11738089_at) / RFU CYB561 (11721691_x_at) / Fold change /veh CYB561 (11721691_x_at) / RFU ANKRD19P (11752326_a_at) / Fold change /veh ANKRD19P (11752326_a_at) / RFU OR2T12 /// OR2T33 /// OR2T8 (11738714_s_at) / Fold change /veh OR2T12 /// OR2T33 /// OR2T8 (11738714_s_at) / RFU VCAN (11748164_a_at) / Fold change /veh VCAN (11748164_a_at) / RFU JSRP1 (11732532_at) / Fold change /veh JSRP1 (11732532_at) / RFU KRTAP10-11 (11738290_x_at) / Fold change /veh KRTAP10-11 (11738290_x_at) / RFU MYO3A (11730013_a_at) / Fold change /veh MYO3A (11730013_a_at) / RFU EBF3 (11725865_a_at) / Fold change /veh EBF3 (11725865_a_at) / RFU CAMK2N1 (11719241_x_at) / Fold change /veh CAMK2N1 (11719241_x_at) / RFU C5orf56 (11738088_a_at) / Fold change /veh C5orf56 (11738088_a_at) / RFU OLFML3 (11715873_a_at) / Fold change /veh OLFML3 (11715873_a_at) / RFU LOC100653217 /// NTM (11731650_a_at) / Fold change /veh LOC100653217 /// NTM (11731650_a_at) / RFU MAPK11 (11762145_a_at) / Fold change /veh MAPK11 (11762145_a_at) / RFU FIZ1 (11724087_x_at) / Fold change /veh FIZ1 (11724087_x_at) / RFU OASL (11726364_x_at) / Fold change /veh OASL (11726364_x_at) / RFU SOX15 (11748057_x_at) / Fold change /veh SOX15 (11748057_x_at) / RFU CD79A (11719716_a_at) / Fold change /veh CD79A (11719716_a_at) / RFU HIST1H1D (11736915_at) / Fold change /veh HIST1H1D (11736915_at) / RFU CASKIN2 (11723855_a_at) / Fold change /veh CASKIN2 (11723855_a_at) / RFU LOC730098 (11760151_x_at) / Fold change /veh LOC730098 (11760151_x_at) / RFU OR4N2 (11742367_at) / Fold change /veh OR4N2 (11742367_at) / RFU PRRT2 (11749266_a_at) / Fold change /veh PRRT2 (11749266_a_at) / RFU SNX32 (11753110_a_at) / Fold change /veh SNX32 (11753110_a_at) / RFU CDHR5 (11726645_a_at) / Fold change /veh CDHR5 (11726645_a_at) / RFU RCAN1 (11760418_a_at) / Fold change /veh RCAN1 (11760418_a_at) / RFU FAM167A (11723789_a_at) / Fold change /veh FAM167A (11723789_a_at) / RFU FAM26E (11764081_at) / Fold change /veh FAM26E (11764081_at) / RFU ISYNA1 (11749810_s_at) / Fold change /veh ISYNA1 (11749810_s_at) / RFU ACY1 (11761880_at) / Fold change /veh ACY1 (11761880_at) / RFU 11764098_at / Fold change /veh 11764098_at / RFU SAMD14 (11745864_x_at) / Fold change /veh SAMD14 (11745864_x_at) / RFU NPB (11741838_a_at) / Fold change /veh NPB (11741838_a_at) / RFU TMPRSS6 (11731388_a_at) / Fold change /veh TMPRSS6 (11731388_a_at) / RFU KRTAP10-2 (11738614_at) / Fold change /veh KRTAP10-2 (11738614_at) / RFU ARHGAP8 /// PRR5-ARHGAP8 (11727945_x_at) / Fold change /veh ARHGAP8 /// PRR5-ARHGAP8 (11727945_x_at) / RFU KRTAP5-7 /// NADSYN1 (11734609_at) / Fold change /veh KRTAP5-7 /// NADSYN1 (11734609_at) / RFU RASL12 (11751679_a_at) / Fold change /veh RASL12 (11751679_a_at) / RFU CDKN2B (11736163_a_at) / Fold change /veh CDKN2B (11736163_a_at) / RFU PRF1 (11729649_at) / Fold change /veh PRF1 (11729649_at) / RFU, ZNF638 /// ZNF638-IT1 / Fold change vs veh, ZNF638 /// ZNF638-IT1 / RFU, PANK3 / Fold change vs veh, PANK3 / RFU, SH3YL1 / Fold change vs veh, SH3YL1 / RFU, ZEB2 / Fold change vs veh, ZEB2 / RFU, NRIP1 / Fold change vs veh, NRIP1 / RFU, PTTG1IP / Fold change vs veh, PTTG1IP / RFU, CAPN2 / Fold change vs veh, CAPN2 / RFU, MED14 / Fold change vs veh, MED14 / RFU, SNORA58 / Fold change vs veh, SNORA58 / RFU, C1orf63 / Fold change vs veh, C1orf63 / RFU, LRRFIP1 / Fold change vs veh, LRRFIP1 / RFU, NDUFAF7 / Fold change vs veh, NDUFAF7 / RFU, SLC12A2 / Fold change vs veh, SLC12A2 / RFU, IBTK / Fold change vs veh, IBTK / RFU, ESF1 / Fold change vs veh, ESF1 / Fold change vs veh, TMEM50B / RFU, TAOK1 / Fold change vs veh, TAOK1 / RFU, ACBD3 / Fold change vs veh, ACBD3 / RFU, TMA16 / Fold change vs veh, TMA16 / RFU, RWDD3 / Fold change vs veh, RWDD3 / RFU, BCAT1 / Fold change vs veh, BCAT1 / RFU, EDEM3 / Fold change vs veh, EDEM3 / RFU, TMEM33 / Fold change vs veh, TMEM33 / RFU, WDR75 / Fold change vs veh, WDR75 / RFU, AHCTF1 / Fold change vs veh, AHCTF1 / RFU, TFRC / Fold change vs veh, TFRC / RFU, ZDHHC17 / Fold change vs veh, ZDHHC17 / RFU, NOM1 / Fold change vs veh, NOM1 / RFU, ARL8B / Fold change vs veh, ARL8B / RFU, ZBTB11 / Fold change vs veh, ZBTB11 / RFU, TAMM41 / Fold change vs veh, TAMM41 / RFU, KIAA1704 /// LOC100996395 / Fold change vs veh, KIAA1704 /// LOC100996395 / RFU, ING1 / Fold change vs veh, ING1 / RFU, TRMT61B / Fold change vs veh, TRMT61B / RFU, FUBP3 / Fold change vs veh, FUBP3 / RFU, TP53 / Fold change vs veh, TP53 / RFU, TNKS2 / Fold change vs veh, TNKS2 / RFU, ZFP14 / Fold change vs veh, ZFP14 / RFU, ACTR2 / Fold change vs veh, ACTR2 / RFU, PPP3R1 / Fold change vs veh, PPP3R1 / RFU, PIK3R1 / Fold change vs veh, PIK3R1 / RFU, HNRNPA1 / Fold change vs veh, HNRNPA1 / RFU, RNF170 / Fold change vs veh, RNF170 / RFU, ZNF28 / Fold change vs veh, ZNF28 / RFU, RNGTT / Fold change vs veh, RNGTT / RFU, OGT / Fold change vs veh, OGT / RFU, BRD1 / Fold change vs veh, BRD1 / RFU, MARS / Fold change vs veh, MARS / RFU, ZNF655 / Fold change vs veh, ZNF655 / RFU, FAHD1 / Fold change vs veh, FAHD1 / RFU, BDP1 / Fold change vs veh, BDP1 / RFU, LRRCC1 / Fold change vs veh, LRRCC1 / RFU, ARID1A / Fold change vs veh, ARID1A / RFU, ZNF146 / Fold change vs veh, ZNF146 / RFU, ZNF330 / Fold change vs veh, ZNF330 / RFU, GPN3 / Fold change vs veh, GPN3 / RFU, C9orf123 / Fold change vs veh, C9orf123 / RFU, N4BP2L2 / Fold change vs veh, N4BP2L2 / RFU, ARFIP1 / Fold change vs veh, ARFIP1 / RFU, FAM179B / Fold change vs veh, FAM179B / RFU, BCL10 / Fold change vs veh, BCL10 / RFU, UHRF1BP1L / Fold change vs veh, UHRF1BP1L / RFU, BET1 / Fold change vs veh, BET1 / RFU, CNOT2 / Fold change vs veh, CNOT2 / RFU, ZNF268 / Fold change vs veh, ZNF268 / Fold change vs veh, ZNF507 / RFU, DGCR2 / Fold change vs veh, DGCR2 / RFU, WDSUB1 / Fold change vs veh, WDSUB1 / Fold change vs veh, HSP90B1 /// MIR3652 / RFU, ADSS / Fold change vs veh, ADSS / RFU, GK / Fold change vs veh, GK / RFU, ZNF148 / Fold change vs veh, ZNF148 / RFU, TAF9 / Fold change vs veh, TAF9 / RFU, SLC1A5 / Fold change vs veh, SLC1A5 / RFU, SLMO2 / Fold change vs veh, SLMO2 / RFU, ABCC4 / Fold change vs veh, ABCC4 / RFU, LOC101060439 /// RAP1B / Fold change vs veh, LOC101060439 /// RAP1B / RFU, RFX7 / Fold change vs veh, RFX7 / RFU, GTPBP10 / Fold change vs veh, GTPBP10 / RFU, CNEP1R1 / Fold change vs veh, CNEP1R1 / RFU, BIVM-ERCC5 /// ERCC5 / Fold change vs veh, BIVM-ERCC5 /// ERCC5 / RFU, ILF3 / Fold change vs veh, ILF3 / RFU 11762660_at / Fold change /veh 11762660_at / RFU VCAN (11757783_s_at) / Fold change /veh VCAN (11757783_s_at) / RFU DDX43 (11728927_at) / Fold change /veh DDX43 (11728927_at) / RFU KRT8 (11758188_x_at) / Fold change /veh KRT8 (11758188_x_at) / RFU NKD1 (11759106_at) / Fold change /veh NKD1 (11759106_at) / RFU SRD5A1 (11742802_a_at) / Fold change /veh SRD5A1 (11742802_a_at) / RFU TPSAB1 /// TPSB2 (11721975_s_at) / Fold change /veh TPSAB1 /// TPSB2 (11721975_s_at) / RFU GSTM3 (11746129_a_at) / Fold change /veh GSTM3 (11746129_a_at) / RFU IL23R (11737362_x_at) / Fold change /veh IL23R (11737362_x_at) / RFU TMEM51 (11727254_a_at) / Fold change /veh TMEM51 (11727254_a_at) / RFU PIWIL2 (11732686_x_at) / Fold change /veh PIWIL2 (11732686_x_at) / RFU ORM1 (11744905_x_at) / Fold change /veh ORM1 (11744905_x_at) / RFU CCDC152 (11743942_at) / Fold change /veh CCDC152 (11743942_at) / RFU ECM1 (11717891_a_at) / Fold change /veh ECM1 (11717891_a_at) / RFU IL23R (11748794_a_at) / Fold change /veh IL23R (11748794_a_at) / RFU TNFAIP8L3 (11732012_x_at) / Fold change /veh TNFAIP8L3 (11732012_x_at) / RFU MBOAT4 (11741988_at) / Fold change /veh MBOAT4 (11741988_at) / RFU 11764193_at / Fold change /veh 11764193_at / RFU TMEM53 (11763286_at) / Fold change /veh TMEM53 (11763286_at) / RFU MAGEB2 (11727129_at) / Fold change /veh MAGEB2 (11727129_at) / RFU TMEM200A (11744735_a_at) / Fold change /veh TMEM200A (11744735_a_at) / RFU CCDC152 (11751479_a_at) / Fold change /veh CCDC152 (11751479_a_at) / RFU FAM211A (11726209_a_at) / Fold change /veh FAM211A (11726209_a_at) / RFU RGS16 (11746705_a_at) / Fold change /veh RGS16 (11746705_a_at) / RFU VCAN (11755009_s_at) / Fold change /veh VCAN (11755009_s_at) / RFU RHOB (11743442_s_at) / Fold change /veh RHOB (11743442_s_at) / RFU RGS16 (11720943_a_at) / Fold change /veh RGS16 (11720943_a_at) / RFU RGS16 (11720944_at) / Fold change /veh RGS16 (11720944_at) / RFU, VPS4B / Fold change vs veh, VPS4B / RFU, CREB1 / Fold change vs veh, CREB1 / RFU, DNAJC13 / Fold change vs veh, DNAJC13 / RFU, GNAQ / Fold change vs veh, GNAQ / RFU, CDK5R1 / Fold change vs veh, CDK5R1 / RFU, ZRANB3 / Fold change vs veh, ZRANB3 / RFU, CUL4A / Fold change vs veh, CUL4A / RFU, CCNY / Fold change vs veh, CCNY / RFU, UFL1 / Fold change vs veh, UFL1 / RFU, COG3 / Fold change vs veh, COG3 / RFU, DIAPH2 / Fold change vs veh, DIAPH2 / RFU, SKA2 / Fold change vs veh, SKA2 / RFU, AFF3 / Fold change vs veh, AFF3 / RFU, LMF1 / Fold change vs veh, LMF1 / RFU, IPO11 / Fold change vs veh, IPO11 / RFU, DFFB / Fold change vs veh, DFFB / RFU, FOXP1 / Fold change vs veh, FOXP1 / RFU, CARD8 / Fold change vs veh, CARD8 / RFU, STRN3 / Fold change vs veh, STRN3 / RFU, ADK / Fold change vs veh, ADK / RFU, RASSF2 / Fold change vs veh, RASSF2 / RFU, WIPF1 / Fold change vs veh, WIPF1 / RFU, LARP1B / Fold change vs veh, LARP1B / RFU, RASA1 / Fold change vs veh, RASA1 / RFU, RB1 / Fold change vs veh, RB1 / RFU, PPFIA1 / Fold change vs veh, PPFIA1 / RFU, MAT2A / Fold change vs veh, MAT2A / RFU, CCT5 / Fold change vs veh, CCT5 / RFU, WDR92 / Fold change vs veh, WDR92 / RFU, CUX1 / Fold change vs veh, CUX1 / RFU, TTC7A / Fold change vs veh, TTC7A / RFU, TMEM135 / Fold change vs veh, TMEM135 / RFU, DEPTOR / Fold change vs veh, DEPTOR / RFU, CPM / Fold change vs veh, CPM / RFU, DNAJB6 / Fold change vs veh, DNAJB6 / RFU, CACNA2D3 / Fold change vs veh, CACNA2D3 / RFU, DTX4 / Fold change vs veh, DTX4 / RFU, TFCP2 / Fold change vs veh, TFCP2 / RFU, GMCL1 /// GMCL1P1 / Fold change vs veh, GMCL1 /// GMCL1P1 / RFU, AEBP2 / Fold change vs veh, AEBP2 / RFU, SNHG1 /// SNORD22 /// SNORD25 /// SNORD26 /// SNORD27 /// SNORD28 /// SNORD29 /// SNORD31 / Fold change vs veh, SNHG1 /// SNORD22 /// SNORD25 /// SNORD26 /// SNORD27 /// SNORD28 /// SNORD29 /// SNORD31 / Fold change (Aza/veh), C12orf56 (ProbeSet 11735607_a_at) / Fold change (ACY-1035/veh), C12orf56 (ProbeSet 11735607_a_at) / Fold change (Aza/veh), FGFR1OP (ProbeSet 11751329_s_at) / Fold change (ACY-1035/veh), FGFR1OP (ProbeSet 11751329_s_at) / Fold change (Aza/veh), VPS36 (ProbeSet 11739960_a_at) / Fold change (ACY-1035/veh), VPS36 (ProbeSet 11739960_a_at) / RFU SYPL1 (11715823_x_at) / Fold change /veh SYPL1 (11715823_x_at) / RFU IGFBP7 (11715501_s_at) / Fold change /veh IGFBP7 (11715501_s_at) / RFU REEP3 (11722064_at) / Fold change /veh REEP3 (11722064_at) / RFU IGLL1 (11728026_x_at) / Fold change /veh IGLL1 (11728026_x_at): dose or concentration left out as unconfirmed. Conditions: MV-4-11 cells, 48 hours.

Consider `Nc1ccc(-c2cccs2)cc1NC(=O)c1ccc2c(c1)cc(C1CC1)n2CCN1CCOCC1` [ACY-1035], for which the “RFU ISYNA1 (11749810_s_at)” value is given as 21.49 RFU.
